# Test results published in patent publication US20020028938A1, “Prostaglandin endoperoxide H synthase biosynthesis inhibitors” (priority 1997, published 2002).
row,SMILES,melting point
1,C[Se](=O)(=O)c1ccc(-c2cnn(-c3ccc(F)cc3)c(=O)c2-c2ccc(F)cc2)cc1,110 to 150 °C
2,"CS(=O)(=O)c1ccc(-c2cnn(Cc3ccccn3)c(=O)c2-c2ccc(F)cc2)cc1 [Example 27, 2-(2-Pyridylmethyl)-4-(4-fluorophenyl)-5-[4-(methylsulfonyl)phenyl]-3(2H)-pyridazinone]",182 to 184 °C
3,"CS(=O)(=O)c1ccc(-c2cnn(Cc3ccncc3)c(=O)c2-c2ccc(F)cc2)cc1 [Example 28, 2-(4-Pyridylmethyl)-4-(4-fluorophenyl)-5-[4-(methylsulfonyl)phenyl]-3(2H)-pyridazinone]",153 to 156 °C
4,"CS(=O)(=O)c1ccc(-c2cnn(Cc3cccnc3)c(=O)c2-c2ccc(F)cc2)cc1 [Example 29, 2-(3-Pyridylmethyl)-4-(4-fluorophenyl)-5-[4-(methylsulfonyl)phenyl]-3(2H)-pyridazinone]",160 to 161 °C
5,"CS(=O)(=O)c1ccc(-c2cnn(Cc3ccc4cc(F)ccc4n3)c(=O)c2-c2ccc(F)cc2)cc1 [Example 30, 2-(6-Fluoroquinolin-2-ylmethyl)-4-(4-fluorophenyl)-5-[4-(methylsulfonyl)phenyl]-3(2H)-pyridazinone]",116 to 119 °C
6,"CCN(CC)c1ccc(C(=O)Cn2ncc(-c3ccc(S(C)(=O)=O)cc3)c(-c3ccc(F)cc3)c2=O)cc1 [Example 44, 2-(4-Diethylaminophenacyl)-4-(4-fluorophenyl)-5-[4-(methylsulfonyl)phenyl]-3(2H)-pyridazinone]",105 to 108 °C
7,"CS(=O)(=O)c1ccc(-c2cnn(CC(=O)c3ccc(Cl)cc3)c(=O)c2-c2ccc(F)cc2)cc1 [Example 47, 2-(4-Chlorophenacyl)-4-(4-fluorophenyl)-5-[4-(methylsulfonyl)phenyl]-3(2H)-pyridazinone]",186 to 188 °C
8,"CS(=O)(=O)c1ccc(-c2cnn(CC(=O)c3ccc(C#N)cc3)c(=O)c2-c2ccc(F)cc2)cc1 [Example 49, 2-(4-Cyanophenacyl)-4-(4-fluorophenyl)-5-[4-(methylsulfonyl)phenyl]-3(2H)-pyridazinone]",188 to 189 °C
9,"CS(=O)(=O)c1ccc(-c2cnn(CCc3ccccc3)c(=O)c2-c2ccc(F)cc2)cc1 [Example 51, 2-Phenethyl-4-(4-fluorophenyl)-5-[4-(methylsulfonyl)phenyl]-3(2H)-pyridazinone]",170 to 171 °C
10,"CS(=O)(=O)c1ccc(-c2cnn(CC(=O)c3ccc(OC(F)(F)F)cc3)c(=O)c2-c2ccc(F)cc2)cc1 [Example 55, 2-(4-Trifluoromethoxyphenacyl)-4-(4-fluorophenyl)-5-[4-(methylsulfonyl)phenyl]-3(2H)-pyridazinone]",160 to 161 °C
11,"CS(=O)(=O)c1ccc(-c2cnn(CC(=O)c3csc4ccccc34)c(=O)c2-c2ccc(F)cc2)cc1 [Example 57, 2-[2-(Benzo[b]thien-3-yl)-2-oxoethyl]-4-(4-fluorophenyl)-5-[4-(methylsulfonyl)phenyl]-3(2H)-pyridazinone]",183 to 184 °C
12,"CS(=O)(=O)c1ccc(-c2cnn(Cc3cc4ccccc4s3)c(=O)c2-c2ccc(F)cc2)cc1 [Example 61, 2-(2-Benzo[b]thienylmethyl)-4-(4-fluorophenyl)-5-[4-(methylsulfonyl)phenyl]-3(2H)-pyridazinone]",93 to 96 °C
13,"Cc1n[nH]c(=O)c(-c2ccc(F)cc2)c1-c1ccc(S(C)(=O)=O)cc1 [Example 63, 4-(4-Fluorophenyl)-5-[4-(methylsulfonyl)phenyl]-6-methyl-3(2H)-pyridazinone]",290 °C (dec.)
14,"NS(=O)(=O)c1ccc(-c2cnn(CC(F)(F)F)c(=O)c2Oc2ccc(F)cc2)cc1 [Example 71, 2-(2,2,2-Trifluoroethyl)-4-(4-fluorophenoxy)-5-[4-(aminosulfonyl)phenyl]-3(2H)-pyridazinone]",150 to 152 °C
15,"CS(=O)(=O)c1ccc(-c2cnn(Cc3ccccc3)c(=O)c2Cl)cc1 [Example 78, 2-Benzyl-4-chloro-5-[4-(methylsulfonyl)phenyl]-3(2H)-pyridazinone]",166 to 167 °C
16,"CS(=O)(=O)c1ccc(-c2cnn(-c3cccc(C(F)(F)F)c3)c(=O)c2-c2ccc(Cl)cc2)cc1 [Example 101, 2-(3-Trifluoromethylphenyl)-4-(4-chlorophenyl)-5-[4-(methylsulfonyl)phenyl]-3(2H)-pyridazinone]",103 to 105 °C
17,"CS(=O)(=O)c1ccc(-c2cnn(Cc3cccc([N+](=O)[O-])c3)c(=O)c2-c2ccc(F)cc2)cc1 [Example 116, 2-(3-Nitrobenzyl)-4-(4-fluorophenyl)-5-[4-(methylsulfonyl)phenyl]-3(2H)-pyridazinone]",156 to 157 °C
18,NS(=O)(=O)c1ccc(-c2cnn(C3CC=CCC3)c(=O)c2-c2ccc(F)cc2)cc1 (stereo not shown) [Example 126],206 to 208 °C
19,"NS(=O)(=O)c1ccc(-c2cnn(Cc3c(F)cc(F)cc3F)c(=O)c2-c2ccc(F)cc2)cc1 [Example 151, 2-(2,4,6-Trifluorobenzyl)-4-(4-fluorophenyl)-5-[4-(aminosulfonyl)phenyl]-3(2H)-pyridazinone]",201 to 203 °C
20,"CS(=O)(=O)c1ccc(-c2cnn(-c3ccccc3C=O)c(=O)c2-c2ccc(F)cc2)cc1 [Example 163, 2-(2-Formylphenyl)-4-(4-fluorophenyl)-5-[4-(methylsulfonyl)phenyl]-3(2H)-pyridazinone]",234 to 236 °C

# Continued, values first:
row,melting point,SMILES
1,255 to 256 °C,"CS(=O)(=O)c1ccc(-c2cn[nH]c(=O)c2-c2ccc(F)cc2)cc1 [Example 11, 4-(4-Fluorophenyl)-5-[4-(methylsulfonyl)phenyl]-3(2H)-pyridazinone]"
2,168 to 170 °C,"CC(C)(C)C(=O)Cn1ncc(-c2ccc(S(C)(=O)=O)cc2)c(-c2ccc(F)cc2)c1=O [Example 59, 2-(3,3-Dimethyl-2-oxobutyl)-4-(4-fluorophenyl)-5-[4-(methylsulfonyl)phenyl]-3(2H)-pyridazinone]"
3,154 to 156 °C,"Cc1ccc(-c2c(-c3ccc(S(C)(=O)=O)cc3)cnn(CC(F)(F)F)c2=O)cc1 [Example 79, 2-(2,2,2-Trifluoroethyl)-4-(4-methylphenyl)-5-[4-(methylsulfonyl)phenyl]-3(2H)-pyridazinone]"
4,215 to 217 °C,"Cc1ccsc1-n1ncc(-c2ccc(S(C)(=O)=O)cc2)c(-c2ccc(F)cc2)c1=O [Example 95, 2-(3-Methyl-2-thienyl)-4-(4-fluorophenyl)-5-[4-(methylsulfonyl)phenyl]-3(2H)-pyridazinone]"
5,180 to 181 °C,"CC1CCCC1n1ncc(-c2ccc(S(C)(=O)=O)cc2)c(-c2ccc(F)cc2)c1=O (stereo not shown) [Example 131, 2-(2-Methylcyclopentyl)-4-(4-fluorophenyl)-5-[4-(methylsulfonyl)phenyl]-3(2H)-pyridazinone]"
6,110 to 116 °C,"CS(=O)(=O)c1ccc(-c2cnn(-c3ccc([N+](=O)[O-])cc3)c(=O)c2-c2ccc(F)cc2)cc1 [Example 157, 2-(4-Nitrophenyl)-4-(4-fluorophenyl)-5-[4-(methylsulfonyl)phenyl]-3(2H)-pyridazinone]"
7,132 to 136 °C,"CC(C)(C)c1ccc(-n2ncc(-c3ccc(S(C)(=O)=O)cc3)c(-c3ccc(F)cc3)c2=O)cc1 [Example 159, 2-(4-t-Butylphenyl)-4-(4-fluorophenyl)-5-[4-(methylsulfonyl)phenyl]-3(2H)-pyridazinone]"
8,130 to 134 °C,"Cc1cc(C)cc(-n2ncc(-c3ccc(S(C)(=O)=O)cc3)c(-c3ccc(F)cc3)c2=O)c1 [Example 170, 2-(3,5-Dimethylphenyl)-4-(4-fluorophenyl)-5-[4-(methylsulfonyl)phenyl]-3(2H)-pyridazinone]"
9,171 to 173 °C,"CS(=O)(=O)c1ccc(-c2cnn(-c3ccc(C(F)(F)F)cc3)c(=O)c2-c2ccc(F)cc2)cc1 [Example 174, 2-(4-Trifluoromethylphenyl)-4-(4-fluorophenyl)-5-[4-(methylsulfonyl)phenyl]-3(2H)-pyridazinone]"
10,190 to 192 °C,"Cc1ccc(-n2ncc(-c3ccc(S(C)(=O)=O)cc3)c(-c3ccc(F)cc3)c2=O)cc1 [Example 177, 2-(4-Methylphenyl)-4-(4-fluorophenyl)-5-[4-(methylsulfonyl)phenyl]-3(2H)-pyridazinone]"
11,200 to 202 °C,"CS(=O)(=O)c1ccc(-c2cnn(-c3ccsc3)c(=O)c2-c2ccc(F)cc2)cc1 [Example 179, 2-(3-Thienyl)-4-(4-fluorophenyl)-5-[4-(methylsulfonyl)phenyl]-3(2H)-pyridazinone]"
12,97 to 101 °C,"COc1ccc(-n2ncc(-c3ccc(S(C)(=O)=O)cc3)c(-c3ccc(F)cc3)c2=O)cc1F [Example 184, 2-(3-Fluoro-4-methoxyphenyl)-4-(4-fluorophenyl)-5-[4-(methylsulfonyl)phenyl]-3(2H)-pyridazinone]"
13,213 to 216 °C,"CS(=O)(=O)c1ccc(-c2cnn(-c3ccc(S(N)(=O)=O)cc3)c(=O)c2-c2ccc(F)cc2)cc1 [Example 186, 2-[4-(Aminosulfonyl)phenyl]-4-(4-fluorophenyl)-5-[4-(methylsulfonyl)phenyl]-3(2H)-pyridazinone]"
14,42 to 75 °C,"CS(=O)(=O)c1ccc(-c2cnn(-c3ccc(F)cc3)c(=O)c2COc2ccccc2)cc1 [Example 196, 2-(4-Fluorophenyl)-4-phenoxymethyl-5-[4-(methylsulfonyl)phenyl]-3(2H)-pyridazinone]"
15,50 to 70 °C,"CC(C)(C)SCc1c(-c2ccc(S(C)(=O)=O)cc2)cnn(-c2ccc(F)cc2)c1=O [Example 197, 2-(4-Fluorophenyl)-4-(t-butylthiomethyl)-5-[4-(methylsulfonyl)phenyl]-3(2H)-pyridazinone]"
16,135 to 137 °C,"CSc1ccc(-c2cnn(-c3ccc(F)cc3)c(=O)c2OC(C)C)cc1 [Example 199, 2-(4-Fluorophenyl)-4-(2-propoxy)-5-[4-(methylthio)phenyl]-3(2H)-pyridazinone]"
17,160 to 162 °C,"CC(C)Oc1c(-c2ccc(S(C)(=O)=O)cc2)cnn(-c2ccc(F)cc2)c1=O [Example 200, 2-(4-Fluorophenyl)-4-(2-propoxy)-5-[4-(methylsulfonyl)phenyl]-3(2H)-pyridazinone]"
